Experimental data: patent US20040010036A1, “N,N, -Substituted s-Aryl-Isothioureas, N,N,N, -Substituted s-Aryl-Isothioureas and combinatorial libraries thereof” (priority 2002, published 2004)

system: Streptococcus pyogenes (ATCC# 97-03 14289); test: Anti-microbial screen (percent inhibition of growth, OD 570 nm); assay type: cell-based; details: Spy4H: Streptococcus pyogenes, read at 4 hours, OD 570 nm; Conc 0.1776 mg ml
Description: Streptococcus pyogenes (ATCC# 97-03 14289) was grown in Todd Hewitt Broth (THB) (Difco Laboratories #0492-17-6) overnight until reaching an optical density of (OD=0.636@570 nm) by reading 0.1 ml in a 96 well microtiter plate in a Molecular Devices Thermomax. This preparation was kept frozen as stocks in 30% v/v glycerol in 1.5 ml aliquots at […] until use. Prior to experiments, 6 ml aliquots were thawed and diluted into 50 ml 2×THB. 60 ul of this dilution was added to 92 wells of microtiter plate. To three wells THB (200 ul) was added to serve as a blank and a sterility control. Test compounds in DMSO and appropriate concentrations of DMSO were added to Growth/Solvent Controls at 0 time. Plates were read at 0 time at 570 nm in the Molecular Devices plate reader to obtain compounds correction factors for insoluble or colored compounds. Plates were read again at 4 hours.
Percent inhibition is calculated with the following formula:
Color correct=O.D. 0 hr - Blank 0 hr)-(Solvent Control Ohr - Blank 0 hr) [formula]

First: COc1ccc(C)cc1/N=C(\Sc1ccccc1)N(Cc1cccc(O)c1)Cc1ccc(Cl)c(Cl)c1 [Cmpd 869]
Second: COc1ccc(C)cc1/N=C(\Sc1cccc(C)c1)N(Cc1ccccc1)Cc1cccc(O)c1 [Cmpd 1149]
The inhibition of growth at 177.6 µg/mL of the first is lower: 62.2% for the first, 76% for the second.

First: COc1cccc(CCN(Cc2ccc(O)cc2)/C(=N/c2ccc(F)c(Cl)c2)Sc2ccccc2)c1 [Cmpd 894]
Second: COc1cccc(CCN(Cc2ccc(O)cc2)/C(=N/c2ccc(Cl)c([N+](=O)[O-])c2)Sc2ccccc2)c1 [Cmpd 903]
The inhibition of growth at 177.6 µg/mL of the first is lower: 57.7% for the first, 95.7% for the second.

Going from `COc1cccc(S/C(=N\Cc2cccc(C)c2)N(CCc2ccc(F)cc2)Cc2cccc(O)c2)c1` [Cmpd 922] to `COc1cccc(S/C(=N\c2cccc(F)c2)N(CCc2ccc(F)cc2)Cc2cccc(O)c2)c1` [Cmpd 923], the inhibition of growth at 177.6 µg/mL falls from 84.3% to 63.9%.

First: COc1cccc(S/C(=N\c2cccc(C(F)(F)F)c2)N(CCc2ccc(F)cc2)Cc2cccc(O)c2)c1 [Cmpd 926]
Second: COc1cccc(S/C(=N\c2ccc(F)c(Cl)c2)N(CCc2ccc(F)cc2)Cc2cccc(O)c2)c1 [Cmpd 934]
The inhibition of growth at 177.6 µg/mL of the first is higher: 96% for the first, 94% for the second.

First: COc1cccc(S/C(=N\c2cc(Cl)cc(Cl)c2)N(CCc2ccc(F)cc2)Cc2cccc(O)c2)c1 [Cmpd 933]
Second: COc1cccc(S/C(=N\c2ccc(C)c(Cl)c2)N(CCc2ccc(F)cc2)Cc2cccc(O)c2)c1 [Cmpd 935]
The inhibition of growth at 177.6 µg/mL of the first is lower: 59.8% for the first, 66.3% for the second.

First: COCCN(Cc1ccc(O)cc1)/C(=N\c1cc(Cl)cc(Cl)c1)Sc1ccc(C)cc1C [Cmpd 1053]
Second: COCCN(Cc1ccc(O)cc1)/C(=N\c1ccc(Cl)c([N+](=O)[O-])c1)Sc1ccc(C)cc1C [Cmpd 1063]
The inhibition of growth at 177.6 µg/mL of the first is lower: 66% for the first, 73.8% for the second.

Going from `COc1cccc(CN(Cc2ccc(O)cc2)/C(=N/c2cc(Cl)cc(Cl)c2)Sc2cccc(C)c2)c1` [Cmpd 1093] to `COc1cccc(CN(Cc2ccc(O)cc2)/C(=N/c2ccc(Cl)c([N+](=O)[O-])c2)Sc2cccc(C)c2)c1` [Cmpd 1103], the inhibition of growth at 177.6 µg/mL falls from 87.1% to 59.5%.

Going from `COc1cccc(CN(Cc2ccc(O)cc2)/C(=N/c2cc(C)ccc2OC)Sc2cccc(C)c2)c1` [Cmpd 1109] to `COc1cccc(CN(Cc2ccc(O)cc2)/C(=N/c2ccc(Cl)c(C(F)(F)F)c2)Sc2cccc(C)c2)c1` [Cmpd 1113], the inhibition of growth at 177.6 µg/mL rises from 57.8% to 64.3%.

Going from `Cc1cccc(S/C(=N/c2ccc(C(F)(F)F)cc2)N(Cc2ccccc2)Cc2cccc(O)c2)c1` [Cmpd 1127] to `Cc1cccc(S/C(=N/c2ccc(Cl)c(C(F)(F)F)c2)N(Cc2ccccc2)Cc2cccc(O)c2)c1` [Cmpd 1153], the inhibition of growth at 177.6 µg/mL falls from 88.6% to 62.7%.

Going from `Cc1cccc(S/C(=N\c2cc(Cl)cc(Cl)c2)N(Cc2ccccc2)Cc2cccc(O)c2)c1` [Cmpd 1133] to `Cc1cccc(S/C(=N\c2ccc(F)c(F)c2)N(Cc2ccccc2)Cc2cccc(O)c2)c1` [Cmpd 1156], the inhibition of growth at 177.6 µg/mL falls from 70.1% to 59.5%.

Compared with `Cc1cccc(S/C(=N/c2ccc(Cl)c([N+](=O)[O-])c2)N(Cc2ccccc2)Cc2cccc(O)c2)c1` [Cmpd 1143], `Cc1cccc(S/C(=N\c2ccc(Cl)c([N+](=O)[O-])c2)N(CCc2ccc(Cl)cc2)Cc2ccc(O)cc2)c1` [Cmpd 1183] is lower in inhibition of growth at 177.6 µg/mL: 97.1% for the first, 62.7% for the second.

Compared with `Cc1cccc(S/C(=N\Cc2ccc(F)cc2)N(CCc2ccc(Cl)cc2)Cc2ccc(O)cc2)c1` [Cmpd 1164], `Cc1cccc(S/C(=N\c2ccc(C(F)(F)F)cc2)N(CCc2ccc(Cl)cc2)Cc2ccc(O)cc2)c1` [Cmpd 1167] is higher in inhibition of growth at 177.6 µg/mL: 72.2% for the first, 94.3% for the second.

Compared with `Cc1ccc(S/C(=N\c2ccc(Cl)c(C(F)(F)F)c2)N(Cc2ccc(O)cc2)Cc2ccc(Cl)c(Cl)c2)cc1` [Cmpd 1233], `Cc1ccc(S/C(=N\c2ccc(F)c(Cl)c2)N(Cc2cccc(O)c2)CC2CCCCC2)c(C)c1` [Cmpd 1254] is higher in inhibition of growth at 177.6 µg/mL: 61.5% for the first, 62.1% for the second.

First: Cc1ccc(S/C(=N\Cc2ccccc2)N(Cc2cccc(O)c2)CC2CCCCC2)c(C)c1 [Cmpd 1241]
Second: CCc1ccc(/N=C(\Sc2ccc(C)cc2C)N(Cc2cccc(O)c2)CC2CCCCC2)cc1 [Cmpd 1260]
The inhibition of growth at 177.6 µg/mL of the first is higher: 68.2% for the first, 57.3% for the second.

First: Cc1ccc(S/C(=N/c2ccc(F)c([N+](=O)[O-])c2)N(Cc2cccc(O)c2)CC2CCCCC2)c(C)c1 [Cmpd 1262]
Second: Cc1ccc(S/C(=N\c2ccc(F)c(F)c2)N(Cc2cccc(O)c2)CC2CCCCC2)c(C)c1 [Cmpd 1276]
The inhibition of growth at 177.6 µg/mL of the first is higher: 67.2% for the first, 57.3% for the second.

First: Cc1ccc(S/C(=N\c2ccc(Cl)cc2)N(Cc2cccc(O)c2)CC2CCCCC2)c(C)c1 [Cmpd 1265]
Second: COCCN(Cc1cccc(O)c1)/C(=N\c1ccccc1F)Sc1ccc(C)cc1C [compound 107]
The inhibition of growth at 177.6 µg/mL of the first is higher: 88.3% for the first, 75.8% for the second.

same assay, conditions: Streptococcus pyogenes; Assay Spy4H; Conc 0.1776 mg ml; plates read at 570 nm at 0 time and at 4 hours

Going from `COc1cccc(S/C(=N\c2ccc(C(F)(F)F)cc2)N(CCc2ccc(F)cc2)Cc2cccc(O)c2)c1` [Cmpd 927] to `COc1cccc(S/C(=N/c2ccc(Cl)c(C(F)(F)F)c2)N(CCc2ccc(F)cc2)Cc2cccc(O)c2)c1` [Cmpd 953], the inhibition of growth at 177.6 µg/mL rises from 49.4% to 54.2%.

First: COc1cccc(/N=C(\Sc2cccc(OC)c2)N(CCc2ccc(F)cc2)Cc2cccc(O)c2)c1 [Cmpd 936]
Second: COc1cccc(S/C(=N\c2ccc(Cl)c([N+](=O)[O-])c2)N(CCc2ccc(F)cc2)Cc2cccc(O)c2)c1 [Cmpd 943]
The inhibition of growth at 177.6 µg/mL of the first is higher: 56.3% for the first, 50.8% for the second.

Compared with `COCCN(Cc1ccc(O)cc1)/C(=N\c1ccccc1F)Sc1ccc(C)cc1C` [Cmpd 1067], `COCCN(Cc1ccc(O)cc1)/C(=N\c1ccc(F)c(F)c1)Sc1ccc(C)cc1C` [Cmpd 1076] is higher in inhibition of growth at 177.6 µg/mL: 53% for the first, 55.1% for the second.

Going from `COCCN(Cc1ccc(O)cc1)/C(=N\c1ccc(Cl)c(C(F)(F)F)c1)Sc1ccc(C)cc1C` [Cmpd 1073] to `Cc1ccc(S/C(=N/c2ccc(Cl)c(C(F)(F)F)c2)N(Cc2cccc(O)c2)CC2CCCCC2)c(C)c1` [Cmpd 1273], the inhibition of growth at 177.6 µg/mL falls from 54.4% to 52.2%.

First: Cc1cccc(S/C(=N\c2ccc(Cl)c(Cl)c2)N(Cc2ccccc2)Cc2cccc(O)c2)c1 [Cmpd 1128]
Second: Cc1cccc(S/C(=N\c2ccc(F)c(Cl)c2)N(Cc2ccccc2)Cc2cccc(O)c2)c1 [Cmpd 1134]
The inhibition of growth at 177.6 µg/mL of the first is lower: 51.5% for the first, 53.6% for the second.

Compared with `Cc1cccc(S/C(=N\c2ccccc2[N+](=O)[O-])N(Cc2ccccc2)Cc2cccc(O)c2)c1` [Cmpd 1146], `Cc1cccc(S/C(=N/c2ccc(OC(F)(F)F)cc2)N(Cc2ccccc2)Cc2cccc(O)c2)c1` [Cmpd 1155] is lower in inhibition of growth at 177.6 µg/mL: 56.4% for the first, 49.4% for the second.

Going from `Cc1cccc(S/C(=N\c2ccccc2[N+](=O)[O-])N(CCc2ccc(Cl)cc2)Cc2ccc(O)cc2)c1` [Cmpd 1186] to `Cc1cccc(S/C(=N\c2ccc(Cl)c(C(F)(F)F)c2)N(CCc2ccc(Cl)cc2)Cc2ccc(O)cc2)c1` [Cmpd 1193], the inhibition of growth at 177.6 µg/mL rises from 52.9% to 53.6%.

First: Cc1cccc(C/N=C(\Sc2ccc(C)cc2C)N(Cc2cccc(O)c2)CC2CCCCC2)c1 [Cmpd 1242]
Second: Cc1ccc(S/C(=N\Cc2ccc(F)cc2)N(Cc2cccc(O)c2)CC2CCCCC2)c(C)c1 [Cmpd 1244]
The inhibition of growth at 177.6 µg/mL of the first is higher: 54.8% for the first, 53.8% for the second.

Going from `Cc1ccc(S/C(=N\c2ccc(F)cc2F)N(Cc2cccc(O)c2)CC2CCCCC2)c(C)c1` [Cmpd 1245] to `Cc1ccc(S/C(=N/c2ccc(Cl)c([N+](=O)[O-])c2)N(Cc2cccc(O)c2)CC2CCCCC2)c(C)c1` [Cmpd 1263], the inhibition of growth at 177.6 µg/mL rises from 53.8% to 56.7%.

`CCOc1ccc(/N=C(/Sc2ccc(C)cc2C)N(Cc2cccc(O)c2)CC2CCCCC2)cc1` [Cmpd 1261] showed an inhibition of growth at 177.6 µg/mL of 51.9%.
